Values after ≈ are worked out from the molar mass of the structure shown.
Tests used:
[1] = Binding affinity to HPPK (unknown origin) assessed as dissociation constant by MST analysis; design: species or system Bacteria
[2] = test system: Staphylococcus epidermidis; test: Antibacterial activity against Staphylococcus epidermidis assessed as inhibition of bacterial growth in LB media; type: functional
Escherichia coli = test: Antibacterial activity against Escherichia coli MG1655 assessed as inhibition of bacterial growth in LB media; type: functional

- Kd [1]: 12.8 µM
- MIC50 [2]: 120 µM (≈ 72.1 µg/mL)
- MIC90 [2]: 240 µM (≈ 144 µg/mL)
- MIC ([2]; read-out: MIC100): 400 µM (≈ 240 µg/mL)
- MIC10 (Escherichia coli): 400 µM (≈ 240 µg/mL)
- MIC30 (Escherichia coli): 2000 µM (≈ 1200 µg/mL)
Compound: Nc1nc2[nH]cc(CCCN3CCC(SC[C@H]4O[C@@H](n5cnc6c(N)ncnc65)[C@H](O)[C@@H]4O)CC3C(=O)O)c2c(=O)[nH]1 (stereo partly specified)

— ChEMBL document CHEMBL6083229, “Bisubstrate inhibitors of 6-hydroxymethyl-7,8-dihydroptein pyrophosphokinase: Toward cell permeability” (Bioorg Med Chem Lett, 2024)
